Target: FABP4 (Homo sapiens, UniProt P15090)
Assay: TdF (Temperature Dependence Fluorescence) assay, thermal shift, FABP4
Type: binding
Conditions: not given
Method in brief: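 Binding measured as ΔTm versus protein alone; binding constants derived by nonlinear fitting with ΔHL set to −7 kcal/mol and ΔCpL to zero.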

FABP4, sequence (P15090 whole entry, species assumed): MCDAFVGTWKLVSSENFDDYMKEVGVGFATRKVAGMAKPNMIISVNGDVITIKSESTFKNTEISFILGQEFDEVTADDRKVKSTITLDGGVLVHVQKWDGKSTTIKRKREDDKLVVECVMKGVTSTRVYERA

| SMILES | FABP4 TdF Kd | Kd [nM] |
| --- | --- | --- |
| O=c1cc(COc2csc(C(F)(F)F)c2)[nH]c2nc(-c3ccccc3)nn12 [1-5] | B (0.5 ≦ B < 0.001 μM) | – |
| O=c1cc(CN2CCc3c(Br)cccc32)[nH]c2nc(-c3ccccc3)nn12 [1-17] | B (0.5 ≦ B < 0.001 μM) | – |
| CC1(C)CCCC(OCc2cc(=O)n3nc(-c4ccccc4)nc3[nH]2)C1 (stereo not drawn) [1-152] | B (0.5 ≦ B < 0.001 μM) | – |
| O=c1cc(CN2CCc3c(Cl)cccc32)[nH]c2nc(-c3ccccc3)nn12 [6-3] | B (0.5 ≦ B < 0.001 μM) | – |
| Cc1c(Cl)cccc1N(C)Cc1cc(=O)n2nc(-c3ccccc3)nc2[nH]1 [6-4] | B (0.5 ≦ B < 0.001 μM) | – |
| O=c1cc(COc2cccc(Cl)c2C2CC2)[nH]c2nc(-c3ccccc3)nn12 [20-2] | B (0.5 ≦ B < 0.001 μM) | – |
| O=c1cc(COc2cccc(Cl)c2C2CCC2)[nH]c2nc(-c3ccccc3)nn12 [26-3] | B (0.5 ≦ B < 0.001 μM) | – |
| CN(CCc1ccccc1)C(=O)C1(OCc2cc(=O)n3nc(-c4ccccc4)nc3[nH]2)CCCCC1 [48-37] | B (0.5 ≦ B < 0.001 μM) | – |
| CN(CC1(c2ccccc2Cl)CC1)C(=O)C1(OCc2cc(=O)n3nc(-c4ccccc4)nc3[nH]2)CCCCC1 [48-42] | B (0.5 ≦ B < 0.001 μM) | – |
| O=C(NCCc1cccc(Cl)c1)C1(OCc2cc(=O)n3nc(-c4ccccc4)nc3[nH]2)CCCCC1 [48-45] | B (0.5 ≦ B < 0.001 μM) | – |
| O=C(NCc1ccccc1C(F)(F)F)C1(OCc2cc(=O)n3nc(-c4ccccc4)nc3[nH]2)CCCCC1 [48-49] | B (0.5 ≦ B < 0.001 μM) | – |
| O=C(NC1CCc2c(Cl)cccc21)C1(OCc2cc(=O)n3nc(-c4ccccc4)nc3[nH]2)CCCCC1 (stereo not drawn) [48-63] | B (0.5 ≦ B < 0.001 μM) | – |
| O=C(N1CCc2ccc(Cl)cc21)C1(OCc2cc(=O)n3nc(-c4ccccc4)nc3[nH]2)CCCCC1 [48-64] | B (0.5 ≦ B < 0.001 μM) | – |
| COc1cccc(C2(CNC(=O)C3(OCc4cc(=O)n5nc(-c6ccccc6)nc5[nH]4)CCCCC3)CC2)c1 [48-70] | B (0.5 ≦ B < 0.001 μM) | – |
| O=C(NCC1(c2ccc(Cl)cc2)CC1)C1CCCCC1OCc1cc(=O)n2nc(-c3ccccc3)nc2[nH]1 (stereo not drawn) [48-76] | B (0.5 ≦ B < 0.001 μM) | – |
| O=C(Nc1c(Cl)cccc1OCc1cc(=O)n2nc(-c3ccccc3)nc2[nH]1)C1CCC1 [49-2] | B (0.5 ≦ B < 0.001 μM) | – |
| O=C(Nc1c(Cl)cccc1OCc1cc(=O)n2nc(-c3ccccc3)nc2[nH]1)C1CC1 [49-3] | B (0.5 ≦ B < 0.001 μM) | – |
| O=C(Nc1c(Cl)cccc1OCc1cc(=O)n2nc(-c3ccccc3)nc2[nH]1)C1CCCC1 [49-4] | B (0.5 ≦ B < 0.001 μM) | – |
| CC1(C(=O)Nc2c(Cl)cccc2OCc2cc(=O)n3nc(-c4ccccc4)nc3[nH]2)CC1 [49-5] | B (0.5 ≦ B < 0.001 μM) | – |
| O=C(CC1CC1)Nc1c(Cl)cccc1OCc1cc(=O)n2nc(-c3ccccc3)nc2[nH]1 [49-6] | B (0.5 ≦ B < 0.001 μM) | – |
| CN(C(=O)C1(OCc2[nH]c3nc(-c4ccccc4)nn3c(=O)c2Cl)CCCCC1)C1CCCCC1 [50-4] | B (0.5 ≦ B < 0.001 μM) | – |
| O=C(NCC1(CO)CCC1)C1(OCc2[nH]c3nc(-c4ccccc4)nn3c(=O)c2Cl)CCCCC1 [50-6] | B (0.5 ≦ B < 0.001 μM) | – |
| O=c1nc(SCc2cccc(Cl)c2Cl)[nH]c2nc(-c3ccccc3)nn12 [51-4] | – | > 500 |
| O=c1cc(CSc2cccc(Cl)c2C2CC2)[nH]c2nc(-c3ccccc3)nn12 [52-4] | – | ≤ 1 |
| O=c1cc(CSc2cccc(Cl)c2C2CCC2)[nH]c2nc(-c3ccccc3)nn12 [52-5] | – | ≤ 1 |
| O=C(O)c1c(Cl)cccc1OCc1cc(=O)n2nc(C(F)(F)F)nc2[nH]1 [53-3] | – | > 500 |
| O=C(O)C1(OCc2cc(=O)n3nc(C(F)(F)F)nc3[nH]2)CCCCC1 [54-1] | – | > 500 |

Second part, the molecule after the results:

| FABP4 TdF Kd | Kd [nM] | SMILES |
| --- | --- | --- |
| B (0.5 ≦ B < 0.001 μM) | – | CCN(C(=O)C1(OCc2cc(=O)n3nc(-c4ccccc4)nc3[nH]2)CCCCC1)C1CCCCC1 [48-38] |
| B (0.5 ≦ B < 0.001 μM) | – | Cn1nc(C2CC2)cc1NC(=O)C1(OCc2cc(=O)n3nc(-c4ccccc4)nc3[nH]2)CCCCC1 [48-39] |
| B (0.5 ≦ B < 0.001 μM) | – | O=C(NC1CCCCC1)C1(OCc2cc(=O)n3nc(-c4ccccc4)nc3[nH]2)CCCCC1 [48-40] |
| B (0.5 ≦ B < 0.001 μM) | – | C#CC1(NC(=O)C2(OCc3cc(=O)n4nc(-c5ccccc5)nc4[nH]3)CCCCC2)CCCCC1 [48-41] |
| – | > 500 | CC1(NC(=O)C2(OCc3cc(=O)n4nc(-c5ccccc5)nc4[nH]3)CCCCC2)COC1 [48-43] |
| B (0.5 ≦ B < 0.001 μM) | – | O=C(O)C1(NC(=O)C2(OCc3cc(=O)n4nc(-c5ccccc5)nc4[nH]3)CCCCC2)CCCCC1 [48-44] |
| B (0.5 ≦ B < 0.001 μM) | – | CN(CC1(CO)CCC1)C(=O)C1(OCc2cc(=O)n3nc(-c4ccccc4)nc3[nH]2)CCCCC1 [48-46] |
| – | > 500 | CNCC1(COC(=O)C2(OCc3cc(=O)n4nc(-c5ccccc5)nc4[nH]3)CCCCC2)CCC1 [48-47] |
| B (0.5 ≦ B < 0.001 μM) | – | O=C(NC1(c2ccccc2F)CC1)C1(OCc2cc(=O)n3nc(-c4ccccc4)nc3[nH]2)CCCCC1 [48-48] |
| B (0.5 ≦ B < 0.001 μM) | – | Cc1ccccc1C1(NC(=O)C2(OCc3cc(=O)n4nc(-c5ccccc5)nc4[nH]3)CCCCC2)CC1 [48-50] |
| B (0.5 ≦ B < 0.001 μM) | – | O=C(NC1(c2ccccc2)CC1)C1(OCc2cc(=O)n3nc(-c4ccccc4)nc3[nH]2)CCCCC1 [48-51] |
| B (0.5 ≦ B < 0.001 μM) | – | O=C(NCc1ccccc1)C1(OCc2cc(=O)n3nc(-c4ccccc4)nc3[nH]2)CCCCC1 [48-52] |
| B (0.5 ≦ B < 0.001 μM) | – | COC(=O)C1(NC(=O)C2(OCc3cc(=O)n4nc(-c5ccccc5)nc4[nH]3)CCCCC2)CCCCC1 [48-53] |
| B (0.5 ≦ B < 0.001 μM) | – | O=C(NCC1(CO)CC1)C1(OCc2cc(=O)n3nc(-c4ccccc4)nc3[nH]2)CCCCC1 [48-54] |
| B (0.5 ≦ B < 0.001 μM) | – | COCC1(CNC(=O)C2(OCc3cc(=O)n4nc(-c5ccccc5)nc4[nH]3)CCCCC2)CC1 [48-55] |
| B (0.5 ≦ B < 0.001 μM) | – | O=C(NCC1(O)CCCCC1)C1(OCc2cc(=O)n3nc(-c4ccccc4)nc3[nH]2)CCCCC1 [48-56] |

| FABP4 TdF Kd | Kd [nM] | SMILES |
| --- | --- | --- |
| B (0.5 ≦ B < 0.001 μM) | – | COc1ccccc1C1(CNC(=O)C2(OCc3cc(=O)n4nc(-c5ccccc5)nc4[nH]3)CCCCC2)CCC1 [48-57] |
| B (0.5 ≦ B < 0.001 μM) | – | CC(C)(CNC(=O)C1(OCc2cc(=O)n3nc(-c4ccccc4)nc3[nH]2)CCCCC1)N1CCOCC1 [48-58] |
| B (0.5 ≦ B < 0.001 μM) | – | O=C(NC1(CO)CCCC1)C1(OCc2cc(=O)n3nc(-c4ccccc4)nc3[nH]2)CCCCC1 [48-59] |
| B (0.5 ≦ B < 0.001 μM) | – | O=C(NCC1(O)CCCC1)C1(OCc2cc(=O)n3nc(-c4ccccc4)nc3[nH]2)CCCCC1 [48-60] |
| B (0.5 ≦ B < 0.001 μM) | – | O=C(NCC1(O)CCOCC1)C1(OCc2cc(=O)n3nc(-c4ccccc4)nc3[nH]2)CCCCC1 [48-61] |
| B (0.5 ≦ B < 0.001 μM) | – | O=C(NCC1(CO)CCOCC1)C1(OCc2cc(=O)n3nc(-c4ccccc4)nc3[nH]2)CCCCC1 [48-62] |
| – | ≤ 1 | O=C(NCC1(c2ccc(Cl)cc2)CCC1)C1(OCc2cc(=O)n3nc(-c4ccccc4)nc3[nH]2)CCCCC1 [48-65] |
| – | > 500 | O=C(N1CCC[C@@H]1CO)C1(OCc2cc(=O)n3nc(-c4ccccc4)nc3[nH]2)CCCCC1 [48-66] |
| B (0.5 ≦ B < 0.001 μM) | – | O=C(NC1(CO)CCCCC1)C1(OCc2cc(=O)n3nc(-c4ccccc4)nc3[nH]2)CCCCC1 [48-67] |
| – | > 500 | NC1(COC(=O)C2(OCc3cc(=O)n4nc(-c5ccccc5)nc4[nH]3)CCCCC2)CCOCC1 [48-68] |
| – | > 500 | O=C(NC1(CO)CCOCC1)C1(OCc2cc(=O)n3nc(-c4ccccc4)nc3[nH]2)CCCCC1 [48-69] |
| B (0.5 ≦ B < 0.001 μM) | – | COc1cccc(C2(NC(=O)C3(OCc4cc(=O)n5nc(-c6ccccc6)nc5[nH]4)CCCCC3)CC2)c1 [48-71] |
| B (0.5 ≦ B < 0.001 μM) | – | CN(CCC1CC1)C(=O)C1(OCc2cc(=O)n3nc(-c4ccccc4)nc3[nH]2)CCCCC1 [48-77] |
| – | > 500 | O=C(O)C1(OCc2cc(=O)n3nc(-c4ccccc4)nc3[nH]2)CCCC1 [48-78] |
| – | ≤ 1 | O=C(NCC1(CO)CCCC1)C1(OCc2[nH]c3nc(-c4ccccc4)nn3c(=O)c2Cl)CCCCC1 [50-5] |

Target: FABP5 (Homo sapiens, UniProt Q01469)
Sequence (Q01469 whole entry, species assumed): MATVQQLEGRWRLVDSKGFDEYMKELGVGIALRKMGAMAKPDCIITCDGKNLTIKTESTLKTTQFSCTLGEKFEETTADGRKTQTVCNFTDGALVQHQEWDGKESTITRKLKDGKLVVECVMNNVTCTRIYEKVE
Assay: TdCD (Temperature-dependent Circular Dichroism) assay, FABP5
Type: binding
Conditions: T=20° C.; compounds tested at 50 μM and 25 μM
Description: [formula] (see Brandts et al and Mayhood et al, shown above) where ΔHL (T) is the van't Hoff enthalpy of ligand binding at temperature T and ΔCpL is the heat capacity upon ligand binding. For simplicity, the ΔCpL and ΔHL (T) were set to zero and −7 kcal/mol respectively. […] TdCD (Temperature-dependent Circular Dichroism) Assay for FABP3/4/5
JASCO 810 spectropolarimeter was used to measure Circular Dichroism (CD) spectra and temperature-dependent protein unfolding profiles. The instrument is equipped with a 6-cell piezoelectric temperature controller. Ellipticity was monitored at 226 nm as a function of temperature with a 1 mm path length cell. The scan rate was 1° C./min with a 4 s response time and 30 s equilibration between measurements.
10 mM stocks of individual compounds were made in 100% DMSO. […] DMSO was added to protein-alone (apo) samples to 1% to compensate for DMSO amounts in protein+ligand samples.
Briefly, the To (midpoint of unfolding for the unliganded protein) was calculated from best fit of the unfolding data to the equation below:
[formula] Where, Yobs is the observed ellipticity value at any temperature T, Yn and Yu are the predicted ellipticity values for fully folded and unfolded species, respectively, mn and mu are slope correction for changes in Yn and Yu with respect to changes in temperature. T0 is the midpoint temperature at which the unliganded protein unfolds and ΔHu and ΔCpu are the heat of unfolding and heat capacity of unfolding, respectively for the unliganded species.
In presence of ligand, the midpoint temperature (Tm) defines where the equilibrium concentrations of unfolded and folded species are equal. Incorporation of the unliganded free energy of binding and subsequent thermodynamic substitution yielded the binding constant of the ligand at the Tm value of unfolding:
[formula] where, T0 is the midpoint of unfolding for unliganded protein and Tm is the midpoint of unfolding in presence of ligand. [LTm] is free ligand at Tm.
Based on estimates for enthalpy of binding, ΔHL (estimated to be −7 kcal/mol) and ligand binding heat capacity ΔCpL (set to be zero), the ligand binding association constant (KL) at temperature T=20° C. were calculated as below.

| SMILES | Kd [nM] |
| --- | --- |
| O=c1cc(COc2csc(C(F)(F)F)c2)[nH]c2nc(-c3ccccc3)nn12 [1-5] | < 500 |
| O=c1cc(CN2CCc3c(Br)cccc32)[nH]c2nc(-c3ccccc3)nn12 [1-17] | > 500 |
| CC1(C)CCCC(OCc2cc(=O)n3nc(-c4ccccc4)nc3[nH]2)C1 (stereo not drawn) [1-152] | < 500 |
| O=c1cc(CN2CCc3c(Cl)cccc32)[nH]c2nc(-c3ccccc3)nn12 [6-3] | > 500 |
| Cc1c(Cl)cccc1N(C)Cc1cc(=O)n2nc(-c3ccccc3)nc2[nH]1 [6-4] | > 500 |
| O=c1cc(COc2cccc(Cl)c2C2CC2)[nH]c2nc(-c3ccccc3)nn12 [20-2] | < 500 |
| O=c1c(Cl)c(COc2cccc(Cl)c2C2CC2)[nH]c2nc(-c3ccccc3)nn12 [24-1] | < 500 |
| O=c1cc(COc2cccc(Cl)c2C2CCC2)[nH]c2nc(-c3ccccc3)nn12 [26-3] | < 500 |
